Like-named read-outs stand apart in the source and are kept apart here.
Experiments:
CYP1A2 = biological target: T1, CYP1A2 (Homo sapiens, UniProt P05177); test: In vitro drug-drug interaction study, human liver microsomes; format: in vitro ADME
T1 construct: In an in vitro study using human liver microsomes; from tissue; host or cells: human liver microsomes
T1 sequence (P05177 1-516): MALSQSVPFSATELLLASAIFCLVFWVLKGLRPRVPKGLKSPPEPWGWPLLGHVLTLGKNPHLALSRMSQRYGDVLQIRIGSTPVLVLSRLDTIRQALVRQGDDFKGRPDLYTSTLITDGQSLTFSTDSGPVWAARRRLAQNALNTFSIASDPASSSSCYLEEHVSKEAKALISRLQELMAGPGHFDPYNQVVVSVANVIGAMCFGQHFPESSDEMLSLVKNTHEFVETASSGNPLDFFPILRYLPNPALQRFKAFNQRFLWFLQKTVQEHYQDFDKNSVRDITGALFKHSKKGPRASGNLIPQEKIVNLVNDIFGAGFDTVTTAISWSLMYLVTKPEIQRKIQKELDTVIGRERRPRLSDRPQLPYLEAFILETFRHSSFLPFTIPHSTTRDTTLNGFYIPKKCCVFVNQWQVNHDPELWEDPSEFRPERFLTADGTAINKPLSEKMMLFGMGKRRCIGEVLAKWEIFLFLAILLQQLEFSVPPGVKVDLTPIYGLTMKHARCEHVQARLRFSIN

[1] = human, in vivo, 1600 mg
[2] = Effect of high fat meal on absorption of 1.6 g mesalamine granules in sachet, crossover, healthy subjects; format: in vivo, human
[3] = Steady state pharmacokinetics, 3 treatments of 4 days: Asacol 800 mg BID, granulated mesalamine formulation 800 mg BID and 1600 mg QD; format: in vivo, human; conditions: for AUC / Cmax / Tmax: human, plasma, oral; for Tmax: median (range), read-out: Tmax
Experimental: In a study of 3 treatments in 3 study periods, each separated by a minimum washout of 7 days, treatments were administered orally, and were as follows:
Subjects received treatments A, B, and C, with each administered during one of the three 4-day study treatment periods.
Each treatment regimen lasted for 4 days and was followed by at least a 7 day washout period.

CYP2D6 = CYP2D6 (Homo sapiens, UniProt P10635); test: In vitro drug-drug interaction study, human liver microsomes; format: in vitro ADME
CYP2D6, sequence (P10635 whole entry): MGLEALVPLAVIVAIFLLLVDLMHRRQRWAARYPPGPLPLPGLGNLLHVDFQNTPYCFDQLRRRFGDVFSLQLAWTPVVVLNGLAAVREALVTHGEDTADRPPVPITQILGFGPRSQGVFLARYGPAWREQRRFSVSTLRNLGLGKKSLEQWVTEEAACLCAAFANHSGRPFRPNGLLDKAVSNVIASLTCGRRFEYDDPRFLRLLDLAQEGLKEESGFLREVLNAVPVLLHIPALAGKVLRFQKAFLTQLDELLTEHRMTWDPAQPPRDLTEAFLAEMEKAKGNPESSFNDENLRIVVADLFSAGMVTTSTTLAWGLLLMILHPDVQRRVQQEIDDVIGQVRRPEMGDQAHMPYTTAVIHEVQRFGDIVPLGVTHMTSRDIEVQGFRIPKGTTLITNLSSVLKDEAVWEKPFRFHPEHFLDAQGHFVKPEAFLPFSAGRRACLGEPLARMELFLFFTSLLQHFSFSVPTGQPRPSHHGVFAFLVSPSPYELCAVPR

CYP3A4 = CYP3A4 (Homo sapiens, UniProt P08684); test: as above; format: in vitro ADME
CYP3A4, sequence (P08684 whole entry): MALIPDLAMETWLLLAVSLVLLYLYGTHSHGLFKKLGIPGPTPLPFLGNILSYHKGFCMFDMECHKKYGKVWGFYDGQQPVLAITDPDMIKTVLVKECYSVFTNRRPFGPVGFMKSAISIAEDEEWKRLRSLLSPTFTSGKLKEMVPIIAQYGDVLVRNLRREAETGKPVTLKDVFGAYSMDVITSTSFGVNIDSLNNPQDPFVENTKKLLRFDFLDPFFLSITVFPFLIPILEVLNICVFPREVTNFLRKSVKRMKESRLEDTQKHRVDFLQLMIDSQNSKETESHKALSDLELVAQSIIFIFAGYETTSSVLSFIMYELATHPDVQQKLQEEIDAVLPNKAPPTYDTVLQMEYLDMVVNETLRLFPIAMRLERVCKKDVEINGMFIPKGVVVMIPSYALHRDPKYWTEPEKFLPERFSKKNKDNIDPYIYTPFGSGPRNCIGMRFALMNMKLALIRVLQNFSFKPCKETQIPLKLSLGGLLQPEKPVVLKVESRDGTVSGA

[4] = Single and multiple oral dose pharmacokinetics of 1.5 g granulated mesalamine formulation, crossover, healthy subjects, fasting; conditions: for AUC(0-t): AUC0-24, plasma, n = 24; for AUC(0-t) / Cmax: mean ±SD; for Tmax: median (range)
[5] = Detection in human breast milk; conditions: in vivo
in vitro = conditions: plasma
clinical = conditions: human, in vivo, 1600 mg
CYP2C9 = CYP2C9 (Homo sapiens, UniProt P11712); test: In vitro drug-drug interaction study, human liver microsomes; format: in vitro ADME
CYP2C9, sequence (P11712 whole entry): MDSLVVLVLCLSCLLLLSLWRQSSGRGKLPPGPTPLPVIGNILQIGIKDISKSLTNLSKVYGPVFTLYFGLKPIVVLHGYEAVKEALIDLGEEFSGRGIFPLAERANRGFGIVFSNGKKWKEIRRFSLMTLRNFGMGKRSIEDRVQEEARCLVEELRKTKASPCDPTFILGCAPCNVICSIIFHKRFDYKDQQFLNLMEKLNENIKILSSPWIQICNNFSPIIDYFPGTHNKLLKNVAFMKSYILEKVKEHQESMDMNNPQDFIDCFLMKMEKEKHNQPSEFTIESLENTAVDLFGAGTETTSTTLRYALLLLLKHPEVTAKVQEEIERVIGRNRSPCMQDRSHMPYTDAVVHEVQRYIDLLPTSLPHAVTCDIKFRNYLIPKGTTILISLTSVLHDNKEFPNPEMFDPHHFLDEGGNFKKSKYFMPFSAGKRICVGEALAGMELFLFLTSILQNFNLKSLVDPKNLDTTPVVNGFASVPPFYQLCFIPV

CYP2C19 = CYP2C19 (Homo sapiens, UniProt P33261); test: as above; format: in vitro ADME
CYP2C19, sequence (P33261 whole entry): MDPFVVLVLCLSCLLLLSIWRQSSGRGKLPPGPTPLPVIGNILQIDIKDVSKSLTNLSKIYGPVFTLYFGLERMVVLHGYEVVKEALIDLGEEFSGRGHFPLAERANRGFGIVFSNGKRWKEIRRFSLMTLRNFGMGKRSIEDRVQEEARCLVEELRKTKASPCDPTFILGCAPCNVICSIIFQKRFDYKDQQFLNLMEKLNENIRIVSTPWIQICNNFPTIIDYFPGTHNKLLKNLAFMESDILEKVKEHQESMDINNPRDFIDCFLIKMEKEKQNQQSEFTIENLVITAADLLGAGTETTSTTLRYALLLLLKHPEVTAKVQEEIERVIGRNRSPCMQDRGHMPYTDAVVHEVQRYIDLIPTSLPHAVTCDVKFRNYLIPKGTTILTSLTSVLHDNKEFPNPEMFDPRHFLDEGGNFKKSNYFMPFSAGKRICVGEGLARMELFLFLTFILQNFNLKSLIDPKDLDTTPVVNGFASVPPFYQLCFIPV

[6] = MP 1600 mg QD versus MP 800 mg BID, geometric mean ratio
[7] = human, plasma, oral, 1.5 g, multiple dose 1.5 g QD, after 7 days
[8] = human, plasma, oral, 1.5 g, single dose 1.5 g

For `CC(=O)Nc1ccc(O)c(C(=O)O)c1` [N-Ac-5-ASA, N-acetyl-5-aminosalicylic acid], the “Inhibition of CYP1A2” value (CYP1A2) was “not to inhibit”, the T1/2 [1] was 10.05 h and the “Tmax following a high-fat meal” value ([2]; 1.6 g granulated mesalamine (2×0.8 g)) was “prolonged”. The “Effect of high fat meal on overall (rate and) extent of absorption” value ([2]; 1.6 g granules) was “not affected”, the “Effect of high fat meal on plasma Cmax” value ([2]; 1.6 g granules, fed vs fasted, 80%:125% rule) was “equivalent” and the “AUC C/B Ratio (90% CI)” value [3, 6] was 93 (78, 112). For the same compound, the “Cmax C/B Ratio (90% CI)” value [3, 6] was 118 (98, 143), the “Steady state plasma concentrations as measured by Cmax, QD compared to BID” value ([3]; granulated mesalamine formulation) was “higher” and the “Systemic exposure, QD versus BID regimen” value ([3]; granulated mesalamine formulation 1600 mg QD vs 800 mg BID) was “comparable”. The “Time to maximum drug concentrations, mean” value ([3]; granulated mesalamine formulation administered BID) was 11.68 h, the “Time to maximum drug concentrations, mean” value ([3]; granulated mesalamine formulation administered QD) was 5.21 h and the “Cmax ratio, QD compared to BID” value ([3]; granulated mesalamine formulation, steady state) was 118%. It also gave an AUC ([3]; 800 mg, AUC, AUCC, Day 4, after Asacol 800 mg BID, converted from μmol * h/L) of 30700 ± 22200 ng·h/mL, an AUC ([3]; 800 mg, AUCC, Day 4, after MP 800 mg BID, converted from μmol * h/L, read-out: AUC) of 46400 ± 15400 ng·h/mL and an AUC ([3]; 800 mg, AUCC, Day 4, after Treatment A Asacol 800 mg BID, mean ± SD, read-out: AUC) of 158 ± 114 µM·h. For the same compound, the AUC ([3]; 800 mg, AUCC, Day 4, after Treatment B MP 800 mg BID, mean ± SD, read-out: AUC) was 238 ± 79.1 µM·h, the Cmax ([3]; 800 mg, Day 4, after Asacol 800 mg BID, converted from μmol/L, mean ± SD) was 2340 ± 1800 ng/mL and the Cmax ([3]; 800 mg, Day 4, after MP 800 mg BID, converted from μmol/L, mean ± SD) was 3610 ± 1230 ng/mL. The Cmax ([3]; 800 mg, Day 4, after Treatment A Asacol 800 mg BID, n = 28, mean ± SD) was 12 ± 9.22 µM, the Cmax ([3]; 800 mg, Day 4, after Treatment B MP 800 mg BID, n = 28, mean ± SD) was 18.5 ± 6.31 µM and the AUC ([3]; 1600 mg, AUC0-24, Day 4, after MP 1600 mg QD, converted from μmol * h/L, read-out: AUC) was 45800 ± 19700 ng·h/mL. It also gave an AUC ([3]; 1600 mg, AUC0-24, Day 4, after Treatment C MP 1600 mg QD, mean ± SD, read-out: AUC) of 235 ± 101 µM·h, a Cmax ([3]; 1600 mg, Day 4, after MP 1600 mg QD, converted from μmol/L, mean ± SD) of 4500 ± 1820 ng/mL and a Cmax ([3]; 1600 mg, Day 4, after Treatment C MP 1600 mg QD, n = 28, mean ± SD) of 23.1 ± 9.35 µM. The Tmax ([3]; Day 4, after MP 800 mg BID, time from first dose) was 16 h, the Tmax ([3]; Day 4, after MP 1600 mg QD) was 3 h and the “Inhibition of CYP2D6” value (CYP2D6) was “not to inhibit”. For the same compound, the “Inhibition of CYP3A4” value (CYP3A4) was “not to inhibit”, the “Increase in systemic exposure (AUC0-24) at steady state compared with a single dose” value ([4]; 1.5 g granulated mesalamine formulation) was 1.7 fold and the AUC(0-inf) ([4]; human, plasma, oral, 1.5 g) was 51000 ± 23000 ng·h/mL. The AUC(0-t) [4, 7] was 37000 ± 9000 ng·h/mL, the AUC(0-t) ([4]; human, plasma, oral, 1.5 g, single dose 1.5 g granulated mesalamine formulation, fasting) was 26000 ± 6000 ng·h/mL and the Cmax ([4]; human, plasma, oral, 1.5 g, plasma, multiple dose 1.5 g QD, after 7 days) was 3400 ± 900 ng/mL. It also gave a Cmax [4, 8] of 2800 ± 800 ng/mL, a half-life ([4]; human, plasma, oral, 1.5 g, Mean half-lives, following single and multiple doses of granulated mesalamine formulation) of 12 to 14 h and a Tmax [4, 7] of 5 h. The Tmax [4, 8] was 4 h, the half-life ([4]; human, plasma, oral, 1.5 g, t1/2, multiple dose 1.5 g QD, after 7 days, harmonic mean (pseudo SD)) was 14 ± 10 h and the half-life ([4]; human, plasma, oral, 1.5 g, t1/2, single dose 1.5 g, harmonic mean (pseudo SD)) was 12 ± 11 h. For the same compound, the “Concentration detected in human breast milk” value [5] was “higher concentrations”, the fraction unbound at 2.5 μg/mL (in vitro) was 0.22 and the half-life (clinical) was 10.1 h. The “Inhibition of CYP2C9” value (CYP2C9) was “not to inhibit” and the “Inhibition of CYP2C19” value (CYP2C19) was “not to inhibit”.

Source: patent US8865688B2, “Compositions and methods for treatment of bowel diseases with granulated mesalamine” (priority 2008, dated 2014)
